Assay results reported in PubChem BioAssay AID256 (DTP/NCI, 2004).
“And” between values parts separate entries of the source, which are not always exact repeats. Identical values can stand only once. Inconclusive results and toxic doses are left out. Rule for the calls: active = survival T/C of 150% or more; inactive = T/C below 125% in these data.

Tested on: CD2F1 mice, L1210 leukemia ip, survival T/C
Assay: NCI In Vivo Anticancer Drug Screen. Data for tumor model L1210 Leukemia (intraperitoneal) in CD2F1 (CDF1) mice
Details: endpoint: mean survival time, higher = longer survival
Method in brief: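 Compound-dosed mice with transplantable tumor versus matched vehicle controls; endpoint ratio T/C reported.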

[1] = dose: 25.0 mg/kg/injection, schedule: Q01DX009 (ip), vehicle: saline with Tween-80
[2] = dose: 50.0 mg/kg/injection, schedule: Q01DX009 (ip), vehicle: saline with Tween-80
[3] = dose: 100.0 mg/kg/injection, schedule: Q01DX009 (ip), vehicle: saline with Tween-80
[4] = dose: 200.0 mg/kg/injection, schedule: Q01DX009 (ip), vehicle: saline with Tween-80
[5] = dose: 400.0 mg/kg/injection, schedule: Q01DX009 (ip), vehicle: saline with Tween-80

Measured: T/C

CC(=O)c1ccc[n+](CCc2c[nH]c3ccccc23)c1
inactive: dose: 12.5 mg/kg/injection, schedule: Q01DX009 (ip), vehicle: saline sonified 103 % of control | dose: 12.5 mg/kg/injection, schedule: Q04DX003 (ip), vehicle: saline with Tween-80 98 % of control | dose: 25.0 mg/kg/injection, schedule: Q01DX009 (ip), vehicle: saline sonified 100 % of control | dose: 25.0 mg/kg/injection, schedule: Q04DX003 (ip), vehicle: saline with Tween-80 104 % of control | dose: 50.0 mg/kg/injection, schedule: Q01DX009 (ip), vehicle: saline sonified 103 % of control | dose: 50.0 mg/kg/injection, schedule: Q04DX003 (ip), vehicle: saline with Tween-80 103 % of control

O=C1C2CC=CCC2C(=O)C2CC=CCC12 (stereo not given)
inactive: dose: 100.0 mg/kg/injection, schedule: Q01DX001 (ip), vehicle: saline with Tween-80 92 % of control | dose: 200.0 mg/kg/injection, schedule: Q01DX001 (ip), vehicle: saline with Tween-80 92 % of control | dose: 400.0 mg/kg/injection, schedule: Q01DX001 (ip), vehicle: saline with Tween-80 101 % of control

O=C(O)c1[nH]nc(-c2ccc([N+](=O)[O-])cc2)c1[N+](=O)[O-]
inactive: dose: 4.7 mg/kg/injection, schedule: Q01DX005 (ip), vehicle: water 86 % of control | dose: 9.4 mg/kg/injection, schedule: Q01DX005 (ip), vehicle: water 90 % of control | dose: 18.8 mg/kg/injection, schedule: Q01DX005 (ip), vehicle: water 90 % of control | dose: 37.5 mg/kg/injection, schedule: Q01DX005 (ip), vehicle: water 104 % of control | dose: 50.0 mg/kg/injection, schedule: Q01DX005 (ip), vehicle: water 97 % of control | dose: 75.0 mg/kg/injection, schedule: Q01DX005 (ip), vehicle: water 93 % of control | dose: 100.0 mg/kg/injection, schedule: Q01DX005 (ip), vehicle: water 93 % of control | dose: 200.0 mg/kg/injection, schedule: Q01DX005 (ip), vehicle: water 89 % of control | dose: 400.0 mg/kg/injection, schedule: Q01DX005 (ip), vehicle: water 101 % of control

Nc1ncnc2c1ncn2C1OC(COCc2ccccc2)C(OCc2ccccc2)C1OCc1ccccc1 (stereo not given)
inactive: dose: 20.0 mg/kg/injection, schedule: Q01DX Z (ip), vehicle: saline 90 % of control | dose: 40.0 mg/kg/injection, schedule: Q01DX Z (ip), vehicle: saline 90 % of control | dose: 80.0 mg/kg/injection, schedule: Q01DX Z (ip), vehicle: saline 90 % of control and 93 % of control | dose: 160.0 mg/kg/injection, schedule: Q01DX Z (ip), vehicle: saline 91 % of control and 96 % of control

BrC1CC(Br)c2c1c1c(c3c2C(Br)CC3Br)C(Br)CC1Br (stereo not given)
inactive: dose: 12.5 mg/kg/injection, schedule: Q01DX009 (ip), vehicle: saline with Tween-80 100 % of control and 105 % of control | [1] 102 % of control and 104 % of control | [2] 104 % of control and 105 % of control | [3] 97 % of control and 108 % of control | [4] 114 % of control and 105 % of control | [5] 104 % of control and 105 % of control

CC(=O)OC1C2(CC3N4C(=O)C5(CO)SSC4(CC31O)C(=O)N5C)OC(C)C(C)(C)C2=O (stereo not given)
inactive: dose: 0.15 mg/kg/injection, schedule: Q01DX009 (ip), vehicle: saline 101 % of control | dose: 0.16 mg/kg/injection, schedule: Q01DX009 (ip), vehicle: saline with Tween-80 97 % of control | dose: 0.31 mg/kg/injection, schedule: Q01DX009 (ip), vehicle: saline with Tween-80 101 % of control | dose: 0.31 mg/kg/injection, schedule: Q01DX009 (ip), vehicle: saline 100 % of control | dose: 0.62 mg/kg/injection, schedule: Q01DX009 (ip), vehicle: saline 100 % of control | dose: 0.63 mg/kg/injection, schedule: Q01DX009 (ip), vehicle: saline with Tween-80 101 % of control | dose: 1.25 mg/kg/injection, schedule: Q01DX009 (ip), vehicle: saline 120 % of control and 98 % of control and 100 % of control | dose: 2.5 mg/kg/injection, schedule: Q01DX009 (ip), vehicle: saline with Tween-80 98 % of control | dose: 2.5 mg/kg/injection, schedule: Q01DX009 (ip), vehicle: saline 107 % of control

Cc1cc(C(C)(C)C)c(OC(=S)N(C)C)c(C(C)(C)C)c1
inactive: [1] 92 % of control | [2] 89 % of control

COC(=O)CC(=O)OCC1C=CCC=C1
inactive: [3] 98 % of control | [4] 98 % of control | [5] 100 % of control

COC(=O)c1c2ccccc2[n+](C)c2ccccc12
inactive: dose: 12.5 mg/kg/injection, schedule: Q01DX009 (ip), vehicle: saline 95 % of control | dose: 25.0 mg/kg/injection, schedule: Q01DX009 (ip), vehicle: saline 95 % of control | dose: 50.0 mg/kg/injection, schedule: Q01DX009 (ip), vehicle: saline 100 % of control | dose: 100.0 mg/kg/injection, schedule: Q01DX001 (ip), vehicle: saline 91 % of control | dose: 200.0 mg/kg/injection, schedule: Q01DX001 (ip), vehicle: saline 96 % of control

Cc1cc(C)c(C)c(Br)c1
inactive: dose: 100.0 mg/kg/injection, schedule: Q01DX009 (ip), vehicle: saline sonified 95 % of control | dose: 100.0 mg/kg/injection, schedule: Q04DX003 (ip), vehicle: saline with Tween-80 100 % of control | dose: 400.0 mg/kg/injection, schedule: Q04DX003 (ip), vehicle: saline with Tween-80 102 % of control
